Values after ≈ are worked out from the molar mass of the structure shown. Like-named read-outs stand apart in the source and are kept apart here.
Columns and labels:
[1] = tested on: C. difficile strains; assay: MIC (microdilution) against panel of 101 C. difficile strains; type: cell-based, Clostridioides difficile; details: Clostridioides difficile
[2] = tested on: Bacteroides fragilis HM-709; assay: MIC against Bacteroides fragilis (gut bacteria); type: cell-based; details: HM709
[3] = tested on: HepG2 cells; assay: XTT cytotoxicity assay; type: cell-based; details: Homo sapiens, HepG2, read-out: XTT IC50
[4] = tested on: extended panel of Gram-positive bacteria; assay: MIC range over extended panel of Gram-positive bacteria; type: cell-based; details: other than C. difficile
[5] = tested on: Corynebacterium spp. HM-784; assay: MIC against Corynebacterium spp. (gut bacteria); type: cell-based; details: SPP.HM784

O=[N+]([O-])c1cnc(-c2nc(-c3ccc(OC4CCCC4)cc3)no2)[nH]1 [Compound 57, 3-(4-(Cyclopentyloxy)phenyl)-5-(4-nitro-1H-imidazol-2-yl)-1,2,4-oxadiazole]
MIC ([1]; strain NR-49279): 0.5 µg/mL (≈ 1.46 µM)
MIC ([1]; strain NR-49280): 0.25 µg/mL (≈ 0.732 µM)
MIC ([1]; strain NR-49281): 0.25 µg/mL (≈ 0.732 µM)
MIC ([1]; strain NR-49282): 0.5 µg/mL (≈ 1.46 µM)
MIC ([1]; strain NR-49283): 0.5 µg/mL (≈ 1.46 µM)
MIC ([1]; strain NR-49284): 0.5 µg/mL (≈ 1.46 µM)
MIC ([1]; strain NR-49285): 0.5 µg/mL (≈ 1.46 µM)
MIC ([1]; strain NR-49286): 0.5 µg/mL (≈ 1.46 µM)
MIC ([1]; strain NR-49287): 0.25 µg/mL (≈ 0.732 µM)
MIC ([1]; strain NR-49288): 1 µg/mL (≈ 2.93 µM)
MIC ([1]; strain NR-49289): 1 µg/mL (≈ 2.93 µM)
MIC ([1]; strain NR-49290): 1 µg/mL (≈ 2.93 µM)
MIC ([1]; strain NR-49291): 1 µg/mL (≈ 2.93 µM)
MIC ([1]; strain NR-49293): 0.5 µg/mL (≈ 1.46 µM)
MIC ([1]; strain NR-49295): 1 µg/mL (≈ 2.93 µM)
MIC ([1]; strain NR-49296): 1 µg/mL (≈ 2.93 µM)
MIC ([1]; strain NR-49297): 1 µg/mL (≈ 2.93 µM)
MIC ([1]; strain NR-49298): 1 µg/mL (≈ 2.93 µM)
MIC ([1]; strain NR-49299): 1 µg/mL (≈ 2.93 µM)
MIC ([1]; strain NR-49300): 1 µg/mL (≈ 2.93 µM)
MIC ([1]; strain NR-49301): 0.5 µg/mL (≈ 1.46 µM)
MIC ([1]; strain NR-49303): 1 µg/mL (≈ 2.93 µM)
MIC ([1]; strain NR-49304): 1 µg/mL (≈ 2.93 µM)
MIC ([1]; strain NR-49306): 0.5 µg/mL (≈ 1.46 µM)
MIC ([1]; strain NR-49307): 0.5 µg/mL (≈ 1.46 µM)
MIC ([1]; strain NR-49308): 0.5 µg/mL (≈ 1.46 µM)
MIC ([1]; strain NR-49309): 0.5 µg/mL (≈ 1.46 µM)
MIC ([1]; strain NR-49311): 1 µg/mL (≈ 2.93 µM)
MIC ([1]; strain NR-49312): 0.5 µg/mL (≈ 1.46 µM)
MIC ([1]; strain NR-49313): 0.5 µg/mL (≈ 1.46 µM)
MIC ([1]; strain NR-49314): 0.5 µg/mL (≈ 1.46 µM)
MIC ([1]; strain NR-49315): 0.5 µg/mL (≈ 1.46 µM)
MIC ([1]; strain NR-49316): 1 µg/mL (≈ 2.93 µM)
MIC ([1]; strain NR-49317): 1 µg/mL (≈ 2.93 µM)
MIC ([1]; strain NR-49319): 0.25 µg/mL (≈ 0.732 µM)
MIC ([1]; strain NR-49320): 0.5 µg/mL (≈ 1.46 µM)
MIC ([1]; strain NR-49321): 1 µg/mL (≈ 2.93 µM)
MIC ([1]; strain NR-49323): 0.5 µg/mL (≈ 1.46 µM)
MIC ([1]; strain NR-49324): 1 µg/mL (≈ 2.93 µM)
MIC ([1]; strain NR-49325): 0.25 µg/mL (≈ 0.732 µM)
MIC ([1]; strain NR-49326): 0.5 µg/mL (≈ 1.46 µM)
MIC ([1]; strain NR-49327): 0.25 µg/mL (≈ 0.732 µM)
MIC ([1]; strain NR-49328): 2 µg/mL (≈ 5.86 µM)
MIC ([1]; strain NR-49329): 0.5 µg/mL (≈ 1.46 µM)
MIC ([1]; strain RMA23691): 1 µg/mL (≈ 2.93 µM)
MIC ([1]; strain RMA23828): 1 µg/mL (≈ 2.93 µM)
MIC ([1]; strain RMA24531): 0.125 µg/mL (≈ 0.366 µM)
MIC ([1]; strain RMA24923): 0.125 µg/mL (≈ 0.366 µM)
MIC ([1]; strain RMA26675): 2 µg/mL (≈ 5.86 µM)
MIC ([1]; strain RMA27081): 1 µg/mL (≈ 2.93 µM)
MIC ([1]; strain RMA27173): 2 µg/mL (≈ 5.86 µM)
MIC50 ([1]; 101 C. difficile strains, read-out: MIC50): 0.5 µg/mL (≈ 1.46 µM)
MIC90 ([1]; 101 C. difficile strains, read-out: MIC90): 1 µg/mL (≈ 2.93 µM)
MIC90 ([1]; 101 C. difficile strains, read-out: MIC90 (101 strains)): 1 µg/mL (≈ 2.93 µM)
MIC [2]: 128 µg/mL (≈ 375 µM)
IC50 [3]: 53.4 ± 4.5 µg/mL (≈ 156 µM)
activity against Gram-positive bacteria [4]: not active
MIC [5]: > 128 µg/mL

From US20260125371A1, “METHOD FOR INHIBITING CLOSTRIDIOIDES DIFFICILE SPORE GERMINATION” (UNIVERSITY OF NOTRE DAME DU LAC, priority 2022, published 2026)
